Measured values published in publication PMC10660663.

Experiment: SuFEx S-O bond formation: di-sulfonimidoyl fluoride (mixture of diastereomers) + diphenol (1:1), DBU 2.1 equiv, [1+1] macrocyclisation, one pot
Conditions: the molecule shown is the open-chain precursor, MeCN, 20.0 mM, 50.0 °C

## Cc1ccc(S(=O)(F)=NC(=O)c2ccc(Oc3ccc(C(=O)N=S(=O)(Oc4cccc(Oc5cccc(Oc6cccc(O)c6)c5)c4)c4ccc(C)cc4)cc3)cc2)cc1 (centres unmarked) [3k]
28-membered ring, 3.0 h
  ring closure, isolated yield: 88%

## Cc1ccc(S(=O)(F)=NC(=O)c2ccc(Oc3ccc(C(=O)N=S(=O)(Oc4ccc(OCCOc5ccc(O)cc5)cc4)c4ccc(C)cc4)cc3)cc2)cc1 (centres unmarked) [3l]
29-membered ring, 3.0 h
  ring closure, isolated yield: 67%

## Cc1ccc(S(=O)(F)=NC(=O)c2ccc(Oc3ccc(C(=O)N=S(=O)(Oc4ccc(OCCCCOc5ccc(O)cc5)cc4)c4ccc(C)cc4)cc3)cc2)cc1 (centres unmarked) [3m]
31-membered ring, 3.0 h
  ring closure, isolated yield: 78%

## Cc1ccc(S(=O)(F)=NC(=O)c2cccc(C(=O)N=S(=O)(Oc3ccc(SSc4ccc(O)cc4)cc3)c3ccc(C)cc3)c2)cc1 (centres unmarked) [3n]
21-membered ring, 3.0 h
  ring closure, isolated yield: 72%

## Cc1ccc(S(=O)(F)=NC(=O)c2cccc(C(=O)N=S(=O)(Oc3ccc(C(C)(C)c4cccc(C(C)(C)c5ccc(O)cc5)c4)cc3)c3ccc(C)cc3)c2)cc1 (centres unmarked) [3o (isophthaloyl)]
24-membered ring, 3.0 h
  ring closure, isolated yield: 70%

## Cc1ccc(S(=O)(F)=NC(=O)c2cccc(C(=O)N=S(=O)(Oc3cccc(Oc4cccc(Oc5cccc(O)c5)c4)c3)c3ccc(C)cc3)c2)cc1 (centres unmarked) [3p]
22-membered ring, 3.0 h
  ring closure, isolated yield: 69%

## Cc1ccc(S(=O)(F)=NC(=O)c2cccc(C(=O)N=S(=O)(Oc3ccc(OCCOc4ccc(O)cc4)cc3)c3ccc(C)cc3)c2)cc1 (centres unmarked) [3q]
23-membered ring, 3.0 h
  ring closure, isolated yield: 64%

## Cc1ccc(S(=O)(F)=NC(=O)c2cccc(C(=O)N=S(=O)(Oc3ccc(SSc4ccc(O)cc4)cc3)c3ccc(C)cc3)n2)cc1 (centres unmarked) [3r]
21-membered ring, 3.0 h
  ring closure, isolated yield: 91%

## Cc1ccc(S(=O)(F)=NC(=O)c2ccc(-c3ccc(C(=O)N=S(=O)(Oc4ccccc4CNCCCCCCNCc4ccccc4O)c4ccc(C)cc4)cc3)cc2)cc1 (centres unmarked) [3s]
30-membered ring, 3.0 h
  ring closure, isolated yield: 80%

## Cc1ccc(S(=O)(F)=NC(=O)c2ccc(-c3ccc(C(=O)N=S(=O)(Oc4ccc(C(C)(C)c5cccc(C(C)(C)c6ccc(O)cc6)c5)cc4)c4ccc(C)cc4)cc3)cc2)cc1 (centres unmarked) [3t]
29-membered ring, 3.0 h
  ring closure, isolated yield: 90%

## Cc1ccc(S(=O)(F)=NC(=O)c2ccc(C(=O)N=S(=O)(Oc3ccc(Cc4ccc(O)cc4)cc3)c3ccc(C)cc3)cc2)cc1 (centres unmarked) [3u (10 mM, 6 h)]
21-membered ring, 6.0 h
  ring closure, isolated yield: 94%
